The results in this text go back to patent US20240425513A1, “OXAZOLE, OXADIAZOLE, AND INDOLE DERIVATIVES FOR THE INHIBITION OF USP28” (Carmot Therapeutics, Inc., priority 2021, published 2024).

By IC50 is commonly meant the concentration needed to halve the response being measured.

Sequence of His6 USP28 (Q96RU2 whole entry): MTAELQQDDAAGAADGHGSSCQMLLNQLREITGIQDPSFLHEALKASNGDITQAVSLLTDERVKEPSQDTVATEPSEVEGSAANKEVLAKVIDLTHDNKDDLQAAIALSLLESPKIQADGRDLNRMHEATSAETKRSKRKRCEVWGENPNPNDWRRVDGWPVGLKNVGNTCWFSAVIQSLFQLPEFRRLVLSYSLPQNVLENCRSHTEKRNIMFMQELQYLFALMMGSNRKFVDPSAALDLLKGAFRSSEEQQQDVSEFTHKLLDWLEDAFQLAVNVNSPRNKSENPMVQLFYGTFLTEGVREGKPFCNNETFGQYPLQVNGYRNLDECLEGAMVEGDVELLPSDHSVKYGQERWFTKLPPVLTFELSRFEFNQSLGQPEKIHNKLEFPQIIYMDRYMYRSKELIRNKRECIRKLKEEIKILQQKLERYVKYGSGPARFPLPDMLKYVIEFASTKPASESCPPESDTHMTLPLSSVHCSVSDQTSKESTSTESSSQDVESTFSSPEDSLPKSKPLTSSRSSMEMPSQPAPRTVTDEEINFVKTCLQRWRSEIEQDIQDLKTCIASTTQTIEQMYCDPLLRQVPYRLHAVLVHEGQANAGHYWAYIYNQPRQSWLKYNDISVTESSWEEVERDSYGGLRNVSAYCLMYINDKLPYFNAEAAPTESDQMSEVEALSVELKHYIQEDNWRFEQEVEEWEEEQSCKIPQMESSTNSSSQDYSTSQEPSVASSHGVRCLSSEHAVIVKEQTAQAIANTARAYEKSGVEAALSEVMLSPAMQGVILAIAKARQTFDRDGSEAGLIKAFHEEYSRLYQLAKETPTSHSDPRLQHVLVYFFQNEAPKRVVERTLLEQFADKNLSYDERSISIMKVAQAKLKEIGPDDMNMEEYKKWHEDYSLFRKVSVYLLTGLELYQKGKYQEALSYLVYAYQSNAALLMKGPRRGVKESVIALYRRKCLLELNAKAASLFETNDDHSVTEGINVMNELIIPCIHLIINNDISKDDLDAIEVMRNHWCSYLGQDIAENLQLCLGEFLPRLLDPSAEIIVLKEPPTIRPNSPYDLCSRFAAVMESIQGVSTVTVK

The assay concerns the target His6 USP28 (Homo sapiens (Human), UniProt Q96RU2). Put plainly: Ubiquitin-Rhodamine 110 assay to determine USP28 IC50. Type of assay: biochemical. To be noted: USP28 150 pM, Ub-Rho110 41 nM, 2 h pre-incubation with enzyme, fluorescence read. The protocol: Example 21. Ubiquitin-Rhodamine 110 Assay to Determine USP28 IC50
Each assay was performed in a final volume of 8 μl in assay buffer containing 10 mM HEPES pH 7.3 ((1 M, pH 7.3 solution, (VWR J848), 100 mM NaCl (5 M, Corning 46-032-CV), 0.01% Triton X-100 (Sigma #T8787), 3.5 mM DTT (1 M, Sigma #43819) and 0.00375% BSA (10%, Calbiochem, #126609)). The assay buffer pH was adjusted to 7.5 using 1 N NaOH (JT Baker, #5000-03). Stock compounds were stored at −80° C. as a 25 mM in DMSO solution along with their respective 20 point 2 fold serial dilutions. For the dose responses, stock compound plates were allowed to come to room temperature the day of the assay. […] of the serial dilution series were pre stamped into assay plates (Black, high base, medium binding, Greiner #782076) for a final top screening concentration of 125 μM (DMSO final concentration=0.5%). Enzyme (His6 USP28, BostonBiochem, #E-570) concentration and incubation times were optimized for the maximal signal to background while maintaining the initial velocity conditions at a fixed substrate concentration. The final concentration of the enzyme in the assay was 150 pM. Final substrate (Ub-Rhol10, Ubiquitin-Rhodamine 110, UBPBio, #M3020) concentration was 41 nM. 2 μl of 4× enzyme was added to assay plates (pre stamped with compound) and incubated for 2 h at room temperature. […] was subsequently added to the assay plates and incubated for 2 h at room temperature. Fluorescence was then read on the Envision (Excitation 485 nm and Emission at 535 nm, Perkin Elmer).
The compound `Cc1oc(Cc2cccc(Cl)c2)nc1-c1ccc(OCc2ncc(C(=O)N(C)C)cn2)cc1` [Compound 26, 2-[(4-{2-[(3-Chlorophenyl)methyl]-5-methyl-1,3-oxazol-4-yl}phenoxy)methyl]-N,N-dimethylpyrimidine-5-carboxamide] yielded a half-inhibitory concentration (IC50) below 50 nM.
Then `Cc1oc(Cc2cccc(Cl)c2)nc1-c1ccc(OCc2cnc(C(=O)N(C)C)cn2)cc1` [Compound 28, 5-[(4-{2-[(3-Chlorophenyl)methyl]-5-methyl-1,3-oxazol-4-yl}phenoxy)methyl]-N,N-dimethylpyrazine-2-carboxamide], with below 50 nM.
In the case of `Cc1oc(Cc2cccc(Cl)c2)nc1-c1ccc(OCc2ccc(C(=O)N3CC4CCC(C3)N4)cn2)cc1` [Compound 29, (3,8-Diazabicyclo[3.2.1]octan-3-yl)(6-((4-(2-(3-chlorobenzyl)-5-methyloxazol-4-yl)phenoxy)methyl)pyridin-3-yl)methanone], the IC50 was below 50 nM.
The same measure for `Cc1oc(Cc2cnn(C)c2)nc1-c1ccc(OCc2ccc(C(=O)N(C)C)cn2)cc1` [Compound 30]: 50 to 500 nM; for `Cc1oc(Cc2ccnc(Cl)c2)nc1-c1ccc(OCc2ccc(C(=O)N(C)C)cn2)cc1` [Compound 31, 6-[(4-{2-[(2-Chloropyridin-4-yl)methyl]-5-methyl-1,3-oxazol-4-yl}phenoxy)methyl]-N,N-dimethylpyridine-3-carboxamide]: 50 to 500 nM.
`Cc1oc(Cc2cccc(Cl)c2)nc1-c1ccc(OCc2ccc(C(=O)N3CCC[C@@H](C(=O)O)C3)cn2)cc1` [Compound 32, (3R)-1-{6-[(4-{2-[(3-Chlorophenyl)methyl]-5-methyl-1,3-oxazol-4-yl}phenoxy)methyl]pyridine-3-carbonyl}piperidine-3-carboxylic acid] returned a half-maximal inhibitory concentration (IC50) below 50 nM.
The same measure for `Cc1oc(Cc2cccc(Cl)c2)nc1-c1ccc(OCc2ccc(C(=O)N(C)C)cc2COCCO)cc1` [Compound 33, 4-((4-(2-(3-Chlorobenzyl)-5-methyloxazol-4-yl)phenoxy)methyl)-3-((2-hydroxyethoxy)methyl)-N,N-dimethylbenzamide]: below 50 nM; for `CN[C@H]1CCN(C(=O)c2ccc(COc3ccc(-c4nc(Cc5cccc(Cl)c5)oc4C)cc3)nc2)C1` [Compound 35, (3S)-1-{6-[(4-{2-[(3-Chlorophenyl)methyl]-5-methyl-1,3-oxazol-4-yl}phenoxy)methyl]pyridine-3-carbonyl}-N-methylpyrrolidin-3-amine]: below 50 nM.
For `CN[C@@H]1CCN(C(=O)c2ccc(COc3ccc(-c4nc(Cc5cccc(Cl)c5)oc4C)cc3)nc2)C1` [Compound 36, (3R)-1-{6-[(4-{2-[(3-Chlorophenyl)methyl]-5-methyl-1,3-oxazol-4-yl}phenoxy)methyl]pyridine-3-carbonyl}-N-methylpyrrolidin-3-amine], the IC50 was below 50 nM.
Then `Cc1oc(Cc2cccc(Cl)c2)nc1-c1ccc(OCc2ccc(C(=O)N3CCC(N)CC3)cn2)cc1` [Compound 38, 1-{6-[(4-{2-[(3-Chlorophenyl)methyl]-5-methyl-1,3-oxazol-4-yl}phenoxy)methyl]pyridine-3-carbonyl}piperidin-4-amine], with below 50 nM; and `CN[C@H]1CCCN(C(=O)c2ccc(COc3ccc(-c4nc(Cc5cccc(Cl)c5)oc4C)cc3)nc2)C1` [Compound 40, (3S)-1-{6-[(4-{2-[(3-Chlorophenyl)methyl]-5-methyl-1,3-oxazol-4-yl}phenoxy)methyl]pyridine-3-carbonyl}-N-methylpiperidin-3-amine], with below 50 nM; and `CN[C@@H]1CCCN(C(=O)c2ccc(COc3ccc(-c4nc(Cc5cccc(Cl)c5)oc4C)cc3)nc2)C1` [Compound 41, (3R)-1-{6-[(4-{2-[(3-Chlorophenyl)methyl]-5-methyl-1,3-oxazol-4-yl}phenoxy)methyl]pyridine-3-carbonyl}-N-methylpiperidin-3-amine], with below 50 nM.
The same measure for `CC(=O)N1CCN(C(=O)c2cc3cc(OCc4ccccc4)ccc3[nH]2)C[C@@H]1C(=O)N[C@H]1C[C@@H](C)N(C#N)C1` [Compound 42]: 50 to 500 nM.
For the compound `Cc1oc(Cc2cccc(Cl)c2)nc1-c1ccc(COc2ccc(C(=O)N3CCC(Cc4ncc[nH]4)CC3)cc2)cc1` [Compound 43, (4-((1H-Imidazol-2-yl)methyl)piperidin-1-yl)(4-((4-(2-(3-chlorobenzyl)-5-methyloxazol-4-yl)benzyl)oxy)phenyl)methanone], the IC50 is below 50 nM.
The same measure for `Cc1oc(Cc2cccc(Cl)c2)nc1-c1ccc(COc2ccc(C(=O)N(C)CCN3CCCNC3=O)cc2)cc1` [Compound 44, 4-[(4-{2-[(3-Chlorophenyl)methyl]-5-methyl-1,3-oxazol-4-yl}phenyl)methoxy]-N-methyl-N-[2-(2-oxo-1,3-diazinan-1-yl)ethyl]benzamide]: below 50 nM.
